Laboratory results as given in patent US8551445B2, “Preparation and use of alkylating agents” (The Queen's Medical Center, priority 2003, dated 2013).

Experiments:
[1] = LAL pyrogen test (Charles River Labs Endosafe); conditions: final purified solutions in physiologic saline
[2] = Culture of final purified solutions for microorganism growth (sterility); conditions: 1 mL of final purified solution in physiologic saline; enriched thioglycollate at 37° C. and trypticase soy broth at 23° C.; 2 weeks
Method: The final purified solutions in physiologic saline [^18F]FCH and [^18F]FECh were cultured (1 mL) for microorganisms for growth in enriched thioglycollate at 37° C. and trypticase soy broth media at 23° C. […] A positive control standard is always included in the assay. [^18F]FCH is currently in an FDA approved pre-clinical IND safety trial in humans.

[3] = FDA approved pre-clinical IND safety trial in humans; format: in vivo; conditions: after about fifty trials

In the case of `C[N+](C)(CCO)CC[18F]` [[^18F]FECh, [^18F]N,N-Dimethyl-N-fluoroethylethanolamine], the “pyrogens (LAL)” value [1] is reported as “pyrogen free” and the “growth of microorganisms in culture” value [2] is reported as “No growth”.
With `C[N+](C)(C[18F])CCO` [[^18F]FCH, [^18F]N,N-Dimethyl-N-fluoromethylethanolamine] the “pyrogens (LAL)” value [1] was “pyrogen free”, the adverse effects [3] was “no adverse effects” and the “growth of microorganisms in culture” value [2] was “No growth”.
